From patent US10328077B2 (CELGENE CORPORATION, priority 2016, dated 2019)
Structures can show the parent of a compound that is named as a salt.

Biological target: human LSD-1 (Homo sapiens (Human), UniProt O60341)
Experiment: In vitro enzyme inhibition assay LSD-1 (TR-FRET)
Assay type: biochemical
Conditions: not given
From the text: This assay determines the ability of a test compound to inhibit LSD-1 demethylase activity.
The enzymatic assay of LSD-1 activity is based on Time Resolved-Fluorescence Resonance Energy Transfer (TR-FRET) detection.

Work on `COc1ccc(-c2c(-c3ccc(C#N)c(F)c3)nc(N(C)C3CCNCC3)n(C)c2=O)cc1` [Example 55, 2-fluoro-4-[5-(4-methoxy-phenyl)-1-methyl-2-(methyl-piperidin-4-yl-amino)-6-oxo-1,6-dihydro-pyrimidin-4-yl]-benzonitrile] yielded an IC50 of under 100 nM.

Same assay, conditions: TR-FRET, H3K4me1-biotin labeled peptide

`COc1ccc(-c2c(-c3ccc(C#N)cc3)nc(N3CCCNCC3)n(C)c2=O)cn1` [Example 62] and `COc1ccc(-c2c(-c3ccc(C#N)c(F)c3)nc(N3CCCNCC3)n(C)c2=O)cn1` [Example 61, 4-[2-[1,4]diazepan-1-yl-5-(6-methoxy-pyridin-3-yl)-1-methyl-6-oxo-1,6-dihydro-pyrimidin-4-yl]-2-fluoro benzonitrile] cannot be ordered by IC50: under 100 nM for the first, under 100 nM for the second.

`COc1ccc(-c2c(-c3ccc(C#N)c(F)c3)nc(N3CC(CN)C3)n(C)c2=O)cc1` [Example 69, 4-[2-(3-aminomethyl-azetidin-1-yl)-5-(4-methoxy-phenyl)-1-methyl-6-oxo-1,6-dihydro-pyrimidin-4-yl]-2-fluoro-benzonitrile] and `Cn1c(N2CCC(N)CC2)nc(-c2ccc(C#N)c(F)c2)c(-c2ccc(F)cc2)c1=O` [Example 101, 4-[2-(4-aminopiperidin-1-yl)-5-(4-fluorophenyl)-1-methyl-6-oxopyrimidin-4-yl]-2-fluorobenzonitrile] cannot be ordered by IC50: under 100 nM for the first, under 100 nM for the second.

`COc1ncc(-c2c(-c3ccc(C#N)c(F)c3)nc(N3CCC(N)CC3)n(C)c2=O)cc1F` [Example 26, 4-[2-(4-aminopiperidyl)-5-(5-fluoro-6-methoxy(3-5,6-dihydropyridyl))-1-methyl-6-oxohydropyrimidin-4-yl]-2-fluorobenzenecarbonitrile] and `COc1ccc(-c2c(-c3ccc(C#N)c(F)c3)nc(N3CCC[C@H](N)C3)n(C)c2=O)cc1F` [Example 28, 4-[2-((3S)-3-amino-piperidin-1-yl)-5-(3-fluoro-4-methoxy-phenyl)-1-methyl-6-oxo-1,6-dihydro-pyrimidin-4-yl]-2-fluoro-benzonitrile] cannot be ordered by IC50: under 100 nM for the first, under 100 nM for the second.

First: Cn1c(N2CCC(N)CC2)nc(-c2ccc(C#N)c(F)c2)cc1=O [Example 108, 4-[2-(4-aminopiperidin-1-yl)-1-methyl-6-oxopyrimidin-4-yl]-2-fluorobenzonitrile]
Second: Cn1c(N2CCC(N)CC2)nc(-c2ccc(C#N)c(F)c2)c(C#N)c1=O [Example 121, 2-(4-amino-piperidin-1-yl)-4-(4-cyano-3-fluoro-phenyl)-1-methyl-6-oxo-1,6-dihydro-pyrimidine-5-carbonitrile]
The IC50 of the first is lower: under 100 nM for the first, 100 to 1000 nM for the second.

`COc1ccc(-c2c(-c3ccc(C#N)c(F)c3)nc(N3CCC(N)CC3)n(CC(=O)O)c2=O)cc1` [Example 15, [2-(4-amino-piperidin-1-yl)-4-(4-cyano-3-fluoro-phenyl)-5-(4-methoxy-phenyl)-6-oxo-6H-pyrimidin-1-yl]-acetic acid] and `CNC(=O)c1ccc(-c2c(-c3ccc(C#N)cc3)nc(N3CCC(N)CC3)n(C)c2=O)cc1F` [Example 40, {4-[2-(4-aminopiperidyl)-6-(4-cyanophenyl)-3-methyl-4-oxo-(3-hydropyrimidin-5-yl)]-2-fluorophenyl}-N-methylcarboxamide] cannot be ordered by IC50: under 100 nM for the first, under 100 nM for the second.

`C#Cc1c(-c2ccc(C#N)c(F)c2)nc(N2CCC(N)CC2)n(C)c1=O` [Example 110] and `Cn1c(N2CCC(N)CC2)nc(-c2ccc(C#N)c(F)c2)c(C#N)c1=O` [Example 19, 2-(4-amino-piperidin-1-yl)-4-(4-cyano-3-fluoro-phenyl)-1-methyl-6-oxo-1,6-dihydro-pyrimidine-5-carbonitrile] cannot be ordered by IC50: under 100 nM for the first, under 100 nM for the second.

`Cn1c(N2CCC(N)CC2)nc(-c2ccccc2)c(-c2ccc3c(ccn3C)c2)c1=O` [Example 114, 2-(4-amino-piperidin-1-yl)-3-methyl-5-(1-methyl-1H-indol-5-yl)-6-phenyl-3H-pyrimidin-4-one] and `COc1ccc(-c2c(-c3ccccc3C#N)nc(N3CCC(N)CC3)n(C)c2=O)cc1F` [Example 119, 2-[2-(4-aminopiperidin-1-yl)-5-(3-fluoro-4-methoxyphenyl)-1-methyl-6-oxopyrimidin-4-yl]benzonitrile] cannot be ordered by IC50: over 10000 nM for the first, over 10000 nM for the second.

`COc1ccc(-c2c(-c3ccc(C#N)c(F)c3)nc(NC3CCNCC3)n(C)c2=O)cc1` [Example 53, 2-fluoro-4-[5-(4-methoxy-phenyl)-1-methyl-6-oxo-2-(piperidin-4-ylamino)-1,6-dihydro-pyrimidin-4-yl]-benzonitrile] and `COc1ccc(-c2c(-c3ccc(C#N)cc3)nc(NC[C@@H]3CCNC3)n(C)c2=O)cc1F` [Example 45, 4-{5-(3-fluoro-4-methoxy-phenyl)-1-methyl-6-oxo-2-[(3R)-(pyrrolidin-3-ylmethyl)-amino]-1,6-dihydro-pyrimidin-4-yl}-benzonitrile] cannot be ordered by IC50: under 100 nM for the first, under 100 nM for the second.

Compared with `COc1ccc(-c2c(-c3ccc(C#N)c(F)c3)nc(N3CCNCC3)n(C)c2=O)cc1F` [Example 47, 2-fluoro-4-[5-(3-fluoro-4-methoxy-phenyl)-1-methyl-6-oxo-2-piperazin-1-yl-1,6-dihydro-pyrimidin-4-yl]-benzonitrile], `COc1ccc(-c2c(-c3cccc(C#N)c3)nc(N3CCC(N)CC3)n(C)c2=O)cc1F` [Example 118, 3-[2-(4-aminopiperidin-1-yl)-5-(3-fluoro-4-methoxyphenyl)-1-methyl-6-oxopyrimidin-4-yl]benzonitrile] is higher in IC50: under 100 nM for the first, over 10000 nM for the second. The first is the more potent here.

`CN(C)c1ncc(-c2c(-c3ccc(C#N)c(F)c3)nc(N3CCC(N(C)C)CC3)n(C)c2=O)cn1` [Example 81, 4-[2′-dimethylamino-2-(4-dimethylamino-piperidin-1-yl)-1-methyl-6-oxo-1,6-dihydro-[5,5′]bipyrimidinyl-4-yl]-2-fluoro-benzonitrile] and `Cc1ccc(-c2c(-c3ccc(C#N)c(F)c3)nc(N3CCC(N(C)C)CC3)n(C)c2=O)cn1` [Example 82, 4-[2-(4-dimethylamino-piperidin-1-yl)-1-methyl-5-(6-methyl-pyridin-3-yl)-6-oxo-1,6-dihydro-pyrimidin-4-yl]-2-fluoro-benzonitrile] cannot be ordered by IC50: under 100 nM for the first, under 100 nM for the second.

`COc1ccc(-c2c(-c3ccc(C#N)cc3)nc(NC[C@H]3CCNC3)n(C)c2=O)cc1F` [Example 44, 4-{5-(3-fluoro-4-methoxy-phenyl)-1-methyl-6-oxo-2-[(3S)-(pyrrolidin-3-ylmethyl)-amino]-1,6-dihydro-pyrimidin-4-yl}-benzonitrile] and `CNC1CCN(c2nc(-c3ccc(C#N)c(F)c3)c(-c3ccc(C)nc3)c(=O)n2C)CC1` [Example 21, 2-fluoro-4-[1-methyl-2-(4-methylamino-piperidin-1-yl)-5-(6-methyl-pyridin-3-yl)-6-oxo-1,6-dihydro-pyrimidin-4-yl]-benzonitrile] cannot be ordered by IC50: under 100 nM for the first, under 100 nM for the second.

Test system: CD11b expression in THP-1 (AML) cells
Experiment: LSD-1 CD11b cellular assay (flow cytometry)
Conditions: Homo sapiens, THP-1, 96 h, read-out: THP-1 IC50
Experimental: To analyze LSD-1 inhibitor efficacy in cells, a CD11b flow cytometry assay was performed. […] LSD-1 test compounds were serially diluted in DMSO. The dilutions were added to each well accordingly to a final concentration of 0.2% DMSO. The cells were incubated at 37 degrees Celsius in 5% CO2 for 4 days. 250 μL of each well was transferred to a well in a 96 well round bottom plate. The plate was centrifuged at 1200 rpm at 4 degrees Celsius in a Beckman Coulter Alegra 6KR centrifuge for 5 minutes. The media was removed leaving the cells at the bottom of the wells. The cells were washed in 100 μL cold HBSS (Hank's Balanced Salt Solution) plus 2% BSA (Bovine Serum Albumin) solution and centrifuged at 1200 rpm at 4 degrees Celsius for 5 minutes. The wash was removed. […] The cells were centrifuged and washed two times in 100 μl HBSS plus 2% BSA. After the final spin the cells were resuspended in 100 μL HBSS plus 2% BSA containing 1 μg/mL DAPI (4′,6-diamidino-2-phenylindole). The cells were then analyzed by flow cytometry in a BD FACSAria machine. Cells were analyzed for CD11b expression. The percent of CD11b expressing cells for each inhibitor concentration was used to determine an IC50 curve for each compound analyzed.

First: Cc1ccc(-c2c(-c3ccc(C#N)cc3)nc(N3CCC(N)CC3)n(C)c2=O)cc1 [Example 1, 4-(2-(4-aminopiperidin-1-yl)-1-methyl-6-oxo-5-p-tolyl-1,6-dihydropyrimidin-4-yl)benzonitrile, HCl salt]
Second: COc1ccc(-c2c(-c3ccc(Cl)c(F)c3)nc(N3CCC(N)CC3)n(C)c2=O)cc1 [Example 111, 2-(4-amino-piperidin-1-yl)-6-(4-chloro-3-fluoro-phenyl)-5-(4-methoxy-phenyl)-3-methyl-3H-pyrimidin-4-one]
The IC50 of the first is lower: under 100 nM for the first, 100 to 1000 nM for the second. The first is the more potent here.
